Where a name gives a salt, the structure may show the parent alone. Read-outs that look alike come from different tables or passages of the source.
What was measured:
Format in all cases: biochemical
MASP-2 (CCP1-CCP2-SP) = MASP-2 (CCP1-CCP2-SP) (Homo sapiens (Human), UniProt O00187); assay: biochemical
mMASP-2 = mMASP-2 (Mus musculus (Mouse), UniProt Q91WP0); assay: Enzymatic inhibition of mMASP-2; details: read-out: mMASP-2 Ki
human α-thrombin = human α-thrombin (Homo sapiens (Human), UniProt P00734); assay: Enzymatic assay for thrombin (Boc-VPR-AMC substrate)
[1] = selectivity for MASP-2 inhibition versus thrombin
[2] = MASP-2 inhibition versus thrombin

MASP-2 (CCP1-CCP2-SP), sequence (O00187 445-686): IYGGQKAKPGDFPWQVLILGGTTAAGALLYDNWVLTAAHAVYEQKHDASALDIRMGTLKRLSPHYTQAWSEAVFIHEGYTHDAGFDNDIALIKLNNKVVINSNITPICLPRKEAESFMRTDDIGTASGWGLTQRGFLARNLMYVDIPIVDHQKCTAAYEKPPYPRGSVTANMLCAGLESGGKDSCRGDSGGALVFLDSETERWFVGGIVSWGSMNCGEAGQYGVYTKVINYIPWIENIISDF
mMASP-2, sequence (Q91WP0 20-685): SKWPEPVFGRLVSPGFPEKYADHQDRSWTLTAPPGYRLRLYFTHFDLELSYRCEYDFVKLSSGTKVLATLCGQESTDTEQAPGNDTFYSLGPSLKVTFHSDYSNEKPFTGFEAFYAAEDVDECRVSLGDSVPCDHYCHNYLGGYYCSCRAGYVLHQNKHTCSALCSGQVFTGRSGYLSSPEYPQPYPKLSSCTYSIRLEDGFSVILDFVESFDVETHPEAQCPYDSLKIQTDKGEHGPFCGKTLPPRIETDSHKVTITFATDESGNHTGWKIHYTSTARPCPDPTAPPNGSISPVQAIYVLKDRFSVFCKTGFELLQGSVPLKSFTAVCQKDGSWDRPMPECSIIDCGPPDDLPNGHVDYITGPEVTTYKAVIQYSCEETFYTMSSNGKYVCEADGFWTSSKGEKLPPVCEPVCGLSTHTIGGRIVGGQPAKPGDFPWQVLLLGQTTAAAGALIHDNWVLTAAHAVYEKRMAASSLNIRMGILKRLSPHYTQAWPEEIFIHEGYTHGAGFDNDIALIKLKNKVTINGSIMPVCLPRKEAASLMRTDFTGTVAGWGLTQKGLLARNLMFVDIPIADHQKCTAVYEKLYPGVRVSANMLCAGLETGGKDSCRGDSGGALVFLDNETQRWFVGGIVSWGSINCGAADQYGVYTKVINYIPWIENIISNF

Row | Structure (SMILES) | Ki (MASP-2 (CCP1-CCP2-SP); read-out: MASP-2 Ki) [µM] | MASP-2 vs. thrombin selectivity (MASP-2 (CCP1-CCP2-SP); [1]) | Ki (mMASP-2) [µM] | Ki (human α-thrombin; read-out: Thrombin Ki) [µM] | Ki (human α-thrombin; Thrombin Ki (μM)) [µM] | Ki (MASP-2 (CCP1-CCP2-SP)) [µM] | MASP-2 vs. thrombin selectivity (MASP-2 (CCP1-CCP2-SP); [2])
1 | Cc1nc(N)ccc1CNC(=O)[C@H](C)NC(=O)[C@H]1CN(c2cccc3ccccc23)CCN1 [compound 1309, (R)—N—((S)-1-(((6-Amino-2-methylpyridin-3-yl)methyl)amino)-1-oxopropan-2-yl)-4-(naphthalen-1-yl)piperazine-2-carboxamide Dihydrochloride] | < 0.5 | **** (≥100-fold) | < 0.5 | > 25 |  |  | 
2 | C[C@H](NC(=O)[C@H](N)CCc1ccccc1)C(=O)NCc1ccc(C(=N)N)nc1 [compound 1270, (R)-2-Amino-N—((S)-1-(((6-carbamimidoylpyridin-3-yl)methyl)amino)-1-oxopropan-2-yl)-4-phenylbutanamide] | < 0.5 | ** (≥5.0 to <25-fold) | < 0.5 | < 0.5 |  |  | 
3 | C[C@H](NC(=O)[C@@H](CCc1ccccc1)NCc1ccc(-c2nnn[nH]2)cc1)C(=O)NCc1ccc(C(=N)N)cc1 [compound 1233, (R)-2-((4-(1H-Tetrazol-5-yl)benzyl)amino)-N—((S)-1-((4-carbamimidoylbenzyl)amino)-1-oxopropan-2-yl)-4-phenylbutanamide] | < 0.5 | * (≥1.0 to <5.0-fold) | < 0.5 |  | 0.5 to 2.5 |  | 
4 | C[C@H](NC(=O)[C@H]1C[C@H](c2ccccc2)CN1)C(=O)NCc1cnc2sccc2c1 [compound 1471, (2R,4R)—N—((S)-1-oxo-1-((Thieno[2,3-b]pyridin-5-ylmethyl)amino)propan-2-yl)-4-phenylpyrrolidine-2-carboxamide Trifluoroacetate salt] |  |  | 2.5 to 10 | > 25 |  | 2.5 to 10 | 
5 | Cc1cc(C)cc(CC[C@@H](N)C(=O)N[C@@H](C)C(=O)NCc2ccc(C(=N)N)cc2)c1 [compound 1073] | < 0.5 |  | < 0.5 | < 0.5 |  |  | ** (5.0 to 25-fold)
6 | C[C@H](NC(=O)[C@H]1C[C@H](c2ccccc2)CN1)C(=O)NCc1cc(Cl)ccc1O [compound 1242, (2R,4R)—N—((S)-1-((5-Chloro-2-hydroxybenzyl)amino)-1-oxopropan-2-yl)-4-phenylpyrrolidine-2-carboxamide] |  | ** (≥5.0 to <25-fold) | 2.5 to 10 |  | 2.5 to 10 | 0.5 to 2.5 | 
7 | Cc1nc(N)ccc1CNC(=O)[C@@H](C)NC(=O)[C@H]1C[C@H](Cc2cccc(C(F)(F)F)c2)C(=O)N1 [compound 1321, (2R,4S)—N—((R)-1-(((6-Amino-2-methylpyridin-3-yl)methyl)amino)-1-oxopropan-2-yl)-5-oxo-4-(3-(trifluoromethyl)benzyl)pyrrolidine-2-carboxamide Di-trifluoroacetate salt] |  |  | > 25 | > 25 |  | 10 to 25 | 
8 | Cc1nc(N)ccc1CNC(=O)[C@H](C)NC(=O)[C@H]1C[C@H](Cc2ccccc2-c2ccc(Cl)s2)CN1 [compound 1410, (2R,4S)—N—((S)-1-(((6-Amino-2-methylpyridin-3-yl)methyl)amino)-1-oxopropan-2-yl)-4-(2-(5-chlorothiophen-2-yl)benzyl)pyrrolidine-2-carboxamide Trifluoroacetate] | < 0.5 | *** (≥25 to <100-fold) | 0.5 to 2.5 |  | 0.5 to 2.5 |  | 
9 | C[C@H](NC(=O)[C@H]1C[C@H](Cc2ccc(F)c(Cl)c2)CN1)C(=O)NCc1cc2cnccc2[nH]1 [compound 1494, (2R,4S)—N—((S)-1-(((1H-Pyrrolo[3,2-c]pyridin-2-yl)methyl)amino)-1-oxopropan-2-yl)-4-(3-chloro-4-fluorobenzyl)pyrrolidine-2-carboxamide Di-trifluoroacetate salt] | < 0.5 | **** (≥100-fold) | < 0.5 |  | 2.5 to 10 |  | 
10 | Cc1nc(N)ccc1CNC(=O)[C@H](C)NC(=O)[C@H]1C[C@H](Cc2ccccc2)CN1 [compound 1304, (2R,4S)—N—((S)-1-(((6-Amino-2-methylpyridin-3-yl)methyl)amino)-1-oxopropan-2-yl)-4-benzylpyrrolidine-2-carboxamide Dihydrochloride] | < 0.5 | *** (≥25 to <100-fold) | 0.5 to 2.5 |  | 0.5 to 2.5 |  | 
11 | C[C@H](NC(=O)[C@H]1C[C@H](c2ccccc2)CN1)C(=O)NCc1cnc2cccc(Cl)c2c1 [compound 1457, (2R,4R)—N—((S)-1-(((5-chloroquinolin-3-yl)methyl)amino)-1-oxopropan-2-yl)-4-phenylpyrrolidine-2-carboxamide] |  |  | 2.5 to 10 | > 25 |  | 10 to 25 | 
12 | Cc1nc(N)ccc1CNC(=O)[C@H](C)NC(=O)[C@H]1C[C@H](Cc2ccc(Br)c(Cl)c2)CN1 [compound 1466, (2R,4S)—N—((S)-1-(((6-Amino-2-methylpyridin-3-yl)methyl)amino)-1-oxopropan-2-yl)-4-(4-bromo-3-chlorobenzyl)pyrrolidine-2-carboxamide Di-trifluoroacetate salt] | < 0.5 | **** (≥100-fold) | < 0.5 |  | 10 to 25 |  | 
13 | Cc1nc(N)ccc1CNC(=O)[C@H](C)NC(=O)[C@H]1C[C@H](Cc2ccc(C3CCC3)cc2)CN1 [compound 1379, (2R,4S)—N—((S)-1-(((6-Amino-2-methylpyridin-3-yl)methyl)amino)-1-oxopropan-2-yl)-4-(4-cyclobutylbenzyl)pyrrolidine-2-carboxamide Di-trifluoroacetate salt] | < 0.5 | **** (≥100-fold) | < 0.5 | > 25 |  |  | 
14 | C[C@H](NC(=O)[C@H](N)Cc1cccc2ccccc12)C(=O)NCc1ccc(C(=N)N)cc1 [compound 1092] | < 0.5 |  | < 0.5 | < 0.5 |  |  | −− (less than 1.0-fold)
15 | C[C@H](NC(=O)[C@H]1C[C@H](Cc2ccccc2-c2ccccc2)CN1)C(=O)NCc1cc(Cl)ccc1-n1cnnn1 [compound 1402, (2R,4S)-4-([1,1′-Biphenyl]-2-ylmethyl)-N-((S)-1-((5-chloro-2-(1H-tetrazol-1-yl)benzyl)amino)-1-oxopropan-2-yl)pyrrolidine-2-carboxamide Trifluoroacetate] | < 0.5 | * (≥1.0 to <5.0-fold) | 0.5 to 2.5 | < 0.5 |  |  | 
16 | C[C@H](NC(=O)[C@H]1C[C@H](c2ccccc2)CN1)C(=O)NCc1cnc2c(c1)c(Cl)cn2C [compound 1442, (2R,4R)—N—((S)-1-(((3-Chloro-1-methyl-1H-pyrrolo[2,3-b]pyridin-5-yl)methyl)amino)-1-oxopropan-2-yl)-4-phenylpyrrolidine-2-carboxamide Dihydrochloride] | < 0.5 |  | < 0.5 | > 25 |  |  | 
17 | C[C@H](NC(=O)[C@H](N)CCc1ccccc1)C(=O)NCc1cc(Cl)ccc1-n1cncn1 [compound 1341, (R)-2-amino-N—((S)-1-((5-chloro-2-(1H-1,2,4-triazol-1-yl)benzyl)amino)-1-oxopropan-2-yl)-4-phenylbutanamide] |  | −− (<1.0-fold) | > 25 |  | 0.5 to 2.5 | 10 to 25 | 
18 | Cc1ccc([C@@H]2CCN[C@@H](C(=O)N[C@@H](C)C(=O)NCc3ccc(C(=N)N)cc3)C2)cc1 [compound 1248, (2R,4R)—N—((S)-1-((4-Carbamimidoylbenzyl)amino)-1-oxopropan-2-yl)-4-(p-tolyl)piperidine-2-carboxamide] | < 0.5 | ** (≥5.0 to <25-fold) | < 0.5 |  | 0.5 to 2.5 |  | 
19 | Cc1nc(N)ccc1CNC(=O)[C@H](C)NC(=O)[C@H]1CC(Cc2ccc(F)cc2)(Cc2ccc(F)cc2)CN1 [compound 1480, (R)—N—((S)-1-(((6-Amino-2-methylpyridin-3-yl)methyl)amino)-1-oxopropan-2-yl)-4,4-bis(4-fluorobenzyl)pyrrolidine-2-carboxamide Di-trifluoroacetate salt] | < 0.5 | **** (≥100-fold) | 0.5 to 2.5 | > 25 |  |  | 
20 | C[C@H](NC(=O)[C@H](N)CCc1ccccc1)C(=O)NCc1ccc(CN)nc1 [compound 1280, (R)-2-Amino-N—((S)-1-(((6-(aminomethyl)pyridin-3-yl)methyl)amino)-1-oxopropan-2-yl)-4-phenylbutanamide] |  |  | 10 to 25 | > 25 |  | 2.5 to 10 | 
21 | Cc1nc(N)ccc1CNC(=O)[C@H](C)NC(=O)[C@H]1C[C@@H](c2ccccc2)CCN1CCCCCC(=O)O [compound 1412, 6-((2R,4S)-2-(((S)-1-(((6-Amino-2-methylpyridin-3-yl)methyl)amino)-1-oxopropan-2-yl)carbamoyl)-4-phenylpiperidin-1-yl)hexanoic acid Trifluoroacetate salt] | < 0.5 |  | 2.5 to 10 | > 25 |  |  | 
22 | Cc1ccc([C@H]2CCN[C@@H](C(=O)N[C@@H](C)C(=O)NCc3ccc(C(=N)N)cc3)C2)cc1 [compound 1249, (2R,4S)—N—((S)-1-((4-Carbamimidoylbenzyl)amino)-1-oxopropan-2-yl)-4-(p-tolyl)piperidine-2-carboxamide] | < 0.5 | **** (≥100-fold) | < 0.5 |  | 10 to 25 |  | 
23 | Cc1nc(N)ccc1CNC(=O)[C@H](C)NC(=O)[C@H]1C[C@H](Cc2nc3cc(Cl)ccc3s2)CN1 [compound 1460, (2R,4R)—N—((S)-1-(((6-Amino-2-methylpyridin-3-yl)methyl)amino)-1-oxopropan-2-yl)-4-((5-chlorobenzo[d]thiazol-2-yl)methyl)pyrrolidine-2-carboxamide Di-trifluoroacetate salt] | < 0.5 | **** (≥100-fold) | < 0.5 | > 25 |  |  | 
